# From patent publication US5229419A, “Chemotherapeutically active acetogenins” (Purdue Research Foundation, priority 1992, dated 1993)
# What was measured:
# [1] = tested on: protein kinase C; assay: protein kinase C displacement test; format: binding; details: 10 μM
# Description: The bioassay results for the lethality of brine shrimp (BST), the inhibition of crown gall tumors on potato discs (PD), the reversal in morphology of db-cAMP induced AC glioma cells from that of mature, differentiated astrocytes to that of immature AC glioma cells (mouse brain cells) (9ASK), the dose that inhibits cell growth to one-half that of untreated poorly differentiated human epidermic carcinoma (9KB), the dose that inhibits cell growth to one-half that of a methylcholanthrene-induced lymphoid neoplasm in a DBA/2 mouse (9PS), and the percent displacement in a protein kinase C test for initial extract fractions are shown in Table 1.
# [2] = tested on: protein tyrosine kinase; assay: protein tyrosine kinase test; format: biochemical
# [3] = tested on: cotton aphid (CA) Aphis gossypii; assay: pesticidal bioassay, cotton aphid (CA); format: in vivo; details: at 1 ppm
# Description: Pesticidal bioassays were conducted at Eli Lilly Laboratories (Greenfield, Ind.) following standard procedures with eight indicator organisms: mosquito larvae (ML) Aedes aegypti (in the media), blowfly larvae (BFL) (1% in the diet), corn root worm (CRW) Diabrotics undecimcuntata howardii (in soil), two-spotted spider mite (2SSM) Tetranychus urticae (on foliage), southern army worm (SAW) Spodoptera eridania (on foliage), melon aphid (MA) (5000 ppm on foliage), cotton aphid (CA) Aphis gossypii, (on foliage) and Haemonchus contortus (HC) (a nematode, 0.1% in the media).
# [4] = tested on: HOLT-4; assay: NCI in vitro cytotoxicity, leukemia; format: cell-based; details: Homo sapiens
# [5] = tested on: HL-60 TB; assay: NCI in vitro cytotoxicity, leukemia; format: cell-based; details: Homo sapiens
# [6] = tested on: P388; assay: NCI in vitro cytotoxicity, leukemia; format: cell-based; details: Mus musculus
# [7] = tested on: H125; assay: NCI in vitro cytotoxicity, non-small cell lung cancer; format: cell-based; details: Homo sapiens
# [8] = tested on: H23; assay: as above; format: cell-based; details: Homo sapiens
# [9] = tested on: H322; assay: as above; format: cell-based; details: Homo sapiens
# [10] = tested on: EKV-X; assay: as above; format: cell-based; details: Homo sapiens, EKVX
# [11] = tested on: HOP-62; assay: as above; format: cell-based; details: Homo sapiens
# [12] = tested on: A-549(ATCC); assay: as above; format: cell-based; details: Homo sapiens, A549
# Excerpt: Isolated pure compounds were sent to the National Institute of Health, National Cancer Institute, Bethesda, Md., for testing in human cancer cell line panels including leukemia, non-small cell lung cancer, small cell lung cancer, CNS cancer, melanoma, ovarian cancer and renal cancer.
# To test further the selective specificity of antitumor activities, bullatacin was sent to the NIH, NCI at Bethesda, Md., for their human tumor cell line panel tests including leukemia, non-small cell lung cancer, small cell lung cancer, colon cancer, breast cancer, CNS cancer melanoma, ovarian cancer, and renal cancer.
# [13] = tested on: H82; assay: NCI in vitro cytotoxicity, small cell lung cancer; format: cell-based; details: Homo sapiens
# [14] = tested on: H524; assay: NCI in vitro cytotoxicity, small cell lung cancer; format: cell-based; details: Homo sapiens
# [15] = tested on: LOVO; assay: NCI in vitro cytotoxicity, colon cancer; format: cell-based; details: Homo sapiens
# [16] = tested on: DLD-1; assay: NCI in vitro cytotoxicity, colon cancer; format: cell-based; details: Homo sapiens
# [17] = tested on: HCC-2998; assay: NCI in vitro cytotoxicity, colon cancer; format: cell-based; details: Homo sapiens
# [18] = tested on: HT29; assay: NCI in vitro cytotoxicity, colon cancer; format: cell-based; details: Homo sapiens, HT-29
# [19] = tested on: MCF7; assay: NCI in vitro cytotoxicity, breast cancer; format: cell-based; details: Homo sapiens
# [20] = tested on: TE-671; assay: NCI in vitro cytotoxicity, CNS cancer; format: cell-based; details: Homo sapiens
# [21] = tested on: U251; assay: NCI in vitro cytotoxicity, CNS cancer; format: cell-based; details: Homo sapiens, U-251
# [22] = tested on: SNB-19; assay: NCI in vitro cytotoxicity, CNS cancer; format: cell-based; details: Homo sapiens
# [23] = tested on: SNB-44; assay: NCI in vitro cytotoxicity, CNS cancer; format: cell-based; details: Homo sapiens, SNB44
# [24] = tested on: SNB-75; assay: NCI in vitro cytotoxicity, CNS cancer; format: cell-based; details: Homo sapiens
# [25] = tested on: MALME-3M; assay: NCI in vitro cytotoxicity, melanoma; format: cell-based; details: Homo sapiens
# [26] = tested on: SK-MEL2; assay: NCI in vitro cytotoxicity, melanoma; format: cell-based; details: Homo sapiens, SK-MEL-2
# [27] = tested on: OVCAR-8; assay: NCI in vitro cytotoxicity, ovarian cancer; format: cell-based; details: Homo sapiens
# [28] = tested on: OVCAR-5; assay: NCI in vitro cytotoxicity, ovarian cancer; format: cell-based; details: Homo sapiens
# [29] = tested on: OVCAR-4; assay: NCI in vitro cytotoxicity, ovarian cancer; format: cell-based; details: Homo sapiens
# [30] = tested on: OVCAR-3; assay: NCI in vitro cytotoxicity, ovarian cancer; format: cell-based; details: Homo sapiens
# [31] = tested on: A498; assay: NCI in vitro cytotoxicity, renal cancer; format: cell-based; details: Homo sapiens
# [32] = tested on: A704; assay: NCI in vitro cytotoxicity, renal cancer; format: cell-based; details: Homo sapiens
# [33] = tested on: UO-31; assay: NCI in vitro cytotoxicity, renal cancer; format: cell-based; details: Homo sapiens
# [34] = tested on: CAKI-1; assay: NCI in vitro cytotoxicity, renal cancer; format: cell-based; details: Homo sapiens
smiles,measurement,setting,value
CCCCCCCCCCC(O)C1CCC(C2CCC(C(O)CCCCCCCCCCC(O)CC3=CC(C)OC3=O)O2)O1 (stereo not shown) [Bullatacin],displacement in a protein kinase C test,[1],7%
same,result in the protein tyrosine kinase test,[2],negative result
same,toxicity to cotton aphids,[3],significantly toxic
same,IC50,[4],1.41 µg/mL
same,IC90,[4],4.72 µg/mL
same,IC50,[5],< 0.000926 µg/mL
same,IC50,[6],> 0.0924 µg/mL
same,IC90,[6],> 0.0924 µg/mL
same,IC50,[7],2.4 µg/mL
same,IC90,[7],> 9.26 µg/mL
same,IC50,[8],2.38 µg/mL
same,IC90,[8],9.21 µg/mL
same,IC50,[9],< 0.000926 µg/mL
same,IC90,[9],> 9.26 µg/mL
same,IC50,[10],0.000115 µg/mL
same,IC90,[10],> 0.0926 µg/mL
same,IC50,[11],< 0.000926 µg/mL
same,IC90,[11],5.13 µg/mL
same,IC90,[12],> 0.0924 µg/mL
same,IC50,[13],1.99 µg/mL
same,IC90,[13],7.14 µg/mL
same,IC50,[14],2.69 µg/mL
same,IC90,[14],7.54 µg/mL
same,IC50,[15],0.000915 µg/mL
same,IC90,[15],4.69 µg/mL
same,IC50,[16],2.76 µg/mL
same,IC90,[16],8.62 µg/mL
same,IC50,[17],4.05 µg/mL
same,IC50,[18],0.00384 µg/mL
same,IC90,[18],> 0.0924 µg/mL
same,IC50,[19],> 0.0924 µg/mL
same,IC90,[19],> 0.0924 µg/mL
same,IC50,[20],0.0256 ng/mL
same,IC90,[20],0.00274 µg/mL
same,IC50,[21],< 0.00924 ng/mL
same,IC90,[21],0.0437 ng/mL
same,IC50,[22],> 0.926 µg/mL
same,IC90,[22],> 0.926 µg/mL
same,IC50,[23],4.42 µg/mL
same,IC90,[23],> 9.26 µg/mL
same,IC50,[24],3.35 µg/mL
same,IC90,[24],> 9.26 µg/mL
same,IC50,[25],2.82 µg/mL
same,IC90,[25],7.67 µg/mL
same,IC90,[26],8.64 µg/mL
same,IC50,[27],2.57 µg/mL
same,IC90,[27],7.65 µg/mL
same,IC50,[28],8.8 µg/mL
same,IC90,[28],> 9.26 µg/mL
same,IC50,[29],> 0.0924 µg/mL
same,IC90,[29],> 0.0924 µg/mL
same,IC50,[30],> 0.0924 µg/mL
same,IC90,[30],> 0.0924 µg/mL
same,IC50,[31],0.0424 ng/mL
same,IC90,[31],0.00371 µg/mL
same,IC50,[32],1.36 µg/mL
same,IC90,[32],8 µg/mL
same,IC50,[33],1.94 µg/mL
same,IC90,[33],> 9.26 µg/mL
same,IC50,[34],0.00394 µg/mL
same,IC90,[34],> 0.0924 µg/mL
